System: 677734-321-R-J1-PDC complex spheroid viability
Experiment: Anticancer human tumor 677734-321-R-J1-PDC patient-derived soft tissue sarcoma cell line growth inhibition [POLQ]
Conditions: for IC50: curve of first compound; for viability, T/C: stronger effect = lower value
Description: Multicellular complex tumor spheroid response to Polymerase (POL) inhibitors (novobiocin, ART-558, RP6685) in combination with a variety of drugs and investigational agents in selected tumor cell lines
The POL inhibitors (novobiocin, ART-558, and RP6685) were evaluated both individually and in combination with standard of care and investigational anticancer small molecules within a complex spheroid model of solid tumors. . Complex spheroids include a stromal component modeled by human endothelial cells (HUVEC) and fibroblasts modeled by human mesenchymal stem cells (MSCs). The concentration ranges selected for each drug and investigational agent were based upon clinically achievable concentrations if the clinical Cmax of the agent was known.
Compounds. The drugs and investigational agents: novobiocin (NSC847541), ART-558 (NSC835418), RP-6685 (NSC848927), peposertib (NSC802822), ceralasertib (NSC780249), elimusertib (NSC800525), camonsertib (NSC841442), AZD-1390 (NSC803789), olaparib (NSC753686), talazoparib (NSC767125), rucaparib (NSC756644), sotorasib (NSC818433), MRTX-1133 (NSC836407), SN-38 (NSC673596), topotecan (NSC609699), epotoside (NSC141540), doxorubicin (NSC123127), gemcitabine (NSC613327), 5-fluorouracil (NSC19893), paclitaxel (NSC125973), vemurafenib (NSC761431), MSA-2 (NSC828583), SN-011 (NSC837082), adavosertib (NSC754352), prexasertib (NSC758257), carboplatin (NSC241240) and oxaliplatin (NSC266046), were obtained from the National Cancer Institute (NCI) Developmental Therapeutics Program Chemical Repository (21). The FDA-approved anticancer drug set is available from the Developmental Therapeutics Program at https://dtp.cancer.gov/organization/dscb/obtaining/. […] The stock solutions were prepared in dimethyl sulfoxide (DMSO, Sigma-Aldrich, St. Louis, MO, cat. D2650), except for the platinum compounds which were prepared in saline (Quality Biological, Gaithersburg, MD, cat. 114-055-101), at 800-fold the tested concentration and stored at -70 degrees C prior to their use. All drugs and investigational agents were tested over a range starting from a high concentration at or near the clinical Cmax and decreasing in half-log increments. If the clinical Cmax for an agent had not been determined, the highest concentration tested was 10 microM, except for SN-38, which was tested at a high concentration of 1 microM.
Cell Culture. All cells were maintained in an incubator at 37 degrees C and 5% CO2 with 95% humidity. The PDC lines were cultured according to standard operating procedures established by the NCI PDMR (https://pdmr.cancer.gov). Table 3 of the manuscript, lists the cell lines along with the number of the three cell types plated to form the mct-spheroids and media for tumor cell growth. After thawing, all PDC lines, except 997537-175-T-J1-PDC and 415267-285-R-J2-PDC, were cultured in Matrigel-coated flasks prepared with a working solution of 1X Ham's F-12 nutrient mix, without supplementation (Thermo Fisher Scientific, cat. 11765054), 100 U/mL penicillin-streptomycin (Thermo Fisher Scientific, cat. 15140122), and 2.5% Matrigel (Corning Inc., Corning, NY, cat. 354248) for the first three passages. The two PDC lines 997537-175-T-J1-PDC and 415267-285-R-J2-PDC were cultured on uncoated flasks. The 857933-349-R-J2-PDC line was cultured in 6C/Colon 1B media containing advanced DMEM/F-12 (Thermo Fisher Scientific, cat. 12634028), 10 mM HEPES (Thermo Fisher Scientific, cat. 15630080), 1X GlutaMAX supplement (Thermo Fisher Scientific, cat. 35050061), 0.1 mg/mL primocin (InvivoGen, San Diego, CA, cat. ant-pm-2), 10% defined fetal bovine serum, heat inactivated (HyClone Laboratories Inc., Logan, UT, cat. SH30070.03HI), 50% L-WRN conditioned media (ATCC, cat. CRL-3276), 1.25 mM N-Acetyl-L-cysteine (Sigma-Aldrich, cat. A9165), 10 mM nicotinamide (Sigma-Aldrich, cat. N0636), 1X B-27 supplement (Thermo Fisher Scientific, cat. 17504044), 1X N-2 supplement (Thermo Fisher Scientific, cat. […]

[1] = second compound 0.0316 µM, first compound 0.0316 µM
[2] = second compound 0.0316 µM, first compound 0.1 µM
[3] = second compound 0.0316 µM, first compound 0.316 µM
[4] = second compound 0.0316 µM, first compound 1 µM
[5] = second compound 0.1 µM, first compound 0.0316 µM
[6] = second compound 0.1 µM, first compound 0.1 µM
[7] = second compound 0.1 µM, first compound 0.316 µM
[8] = second compound 0.1 µM, first compound 1 µM
[9] = second compound 0.316 µM, first compound 0.0316 µM
[10] = second compound 0.316 µM, first compound 0.1 µM
[11] = second compound 0.316 µM, first compound 0.316 µM
[12] = second compound 0.316 µM, first compound 1 µM
[13] = second compound 1 µM, first compound 0.0316 µM
[14] = second compound 1 µM, first compound 0.1 µM
[15] = second compound 1 µM, first compound 0.316 µM
[16] = second compound 1 µM, first compound 1 µM
[17] = second compound 3.16 µM, first compound 0.0316 µM
[18] = second compound 3.16 µM, first compound 0.1 µM
[19] = second compound 3.16 µM, first compound 0.316 µM
[20] = second compound 3.16 µM, first compound 1 µM
[21] = second compound 10 µM, first compound 0.0316 µM
[22] = second compound 10 µM, first compound 0.1 µM
[23] = second compound 10 µM, first compound 0.316 µM
[24] = second compound 10 µM, first compound 1 µM
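Note: spheroids exposed to compounds for one week.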
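Throughout, for viability, T/C: 100% = vehicle DMSO treated spheroids.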

Structure (SMILES): COc1cccc(OCCCN)c1-c1cc(Nc2cnc(C#N)cn2)n[nH]1 + COC1C(OC(N)=O)C(O)C(Oc2ccc3c(O)c(NC(=O)c4ccc(O)c(CC=C(C)C)c4)c(=O)oc3c2C)OC1(C)C
- IC50 (second compound 0.0316 µM): 7.45 nM
- IC50 (second compound 0.1 µM): 7.48 nM
- IC50 (second compound 0.316 µM): 7.05 nM
- IC50 (second compound 1 µM): 8.14 nM
- IC50 (second compound 3.16 µM): 7.37 nM
- IC50 (second compound 10 µM): 7.32 nM
- viability, T/C (second compound 0.0316 µM, first compound 0.00316 µM): 97.1%
- viability, T/C (second compound 0.0316 µM, first compound 0.01 µM): 33.8%
- viability, T/C [1]: 12.8%
- viability, T/C [2]: 9.46%
- viability, T/C [3]: 8.59%
- viability, T/C [4]: 8.45%
- viability, T/C (second compound 0.1 µM, first compound 0.00316 µM): 92.5%
- viability, T/C (second compound 0.1 µM, first compound 0.01 µM): 35.6%
- viability, T/C [5]: 11.9%
- viability, T/C [6]: 8.91%
- viability, T/C [7]: 9.88%
- viability, T/C [8]: 7.56%
- viability, T/C (second compound 0.316 µM, first compound 0.00316 µM): 97.3%
- viability, T/C (second compound 0.316 µM, first compound 0.01 µM): 29%
- viability, T/C [9]: 14.7%
- viability, T/C [10]: 9.01%
- viability, T/C [11]: 10.5%
- viability, T/C [12]: 7.41%
- viability, T/C (second compound 1 µM, first compound 0.00316 µM): 102%
- viability, T/C (second compound 1 µM, first compound 0.01 µM): 38.5%
- viability, T/C [13]: 9.9%
- viability, T/C [14]: 11.4%
- viability, T/C [15]: 11.9%
- viability, T/C [16]: 8.34%
- viability, T/C (second compound 3.16 µM, first compound 0.00316 µM): 103%
- viability, T/C (second compound 3.16 µM, first compound 0.01 µM): 30.6%
- viability, T/C [17]: 11.9%
- viability, T/C [18]: 9.84%
- viability, T/C [19]: 12.3%
- viability, T/C [20]: 9.73%
- viability, T/C (second compound 10 µM, first compound 0.00316 µM): 88.4%
- viability, T/C (second compound 10 µM, first compound 0.01 µM): 35.7%
- viability, T/C [21]: 12.3%
- viability, T/C [22]: 12%
- viability, T/C [23]: 10.3%
- viability, T/C [24]: 9.04%

Structure (SMILES): O=C(c1cc(Cc2n[nH]c(=O)c3ccccc23)ccc1F)N1CCN(C(=O)C2CC2)CC1 + COC1C(OC(N)=O)C(O)C(Oc2ccc3c(O)c(NC(=O)c4ccc(O)c(CC=C(C)C)c4)c(=O)oc3c2C)OC1(C)C
- IC50 (second compound 0.0316 µM): > 10000 nM
- IC50 (second compound 0.1 µM): > 10000 nM
- IC50 (second compound 0.316 µM): > 10000 nM
- IC50 (second compound 1 µM): > 10000 nM
- IC50 (second compound 3.16 µM): > 10000 nM
- IC50 (second compound 10 µM): > 10000 nM
- viability, T/C [1]: 108%
- viability, T/C [2]: 105%
- viability, T/C [3]: 103%
- viability, T/C [4]: 110%
- viability, T/C (second compound 0.0316 µM, first compound 3.16 µM): 102%
- viability, T/C (second compound 0.0316 µM, first compound 10 µM): 86.4%
- viability, T/C [5]: 104%
- viability, T/C [6]: 112%
- viability, T/C [7]: 101%
- viability, T/C [8]: 104%
- viability, T/C (second compound 0.1 µM, first compound 3.16 µM): 107%
- viability, T/C (second compound 0.1 µM, first compound 10 µM): 79.6%
- viability, T/C [9]: 112%
- viability, T/C [10]: 111%
- viability, T/C [11]: 104%
- viability, T/C [12]: 111%
- viability, T/C (second compound 0.316 µM, first compound 3.16 µM): 111%
- viability, T/C (second compound 0.316 µM, first compound 10 µM): 78.1%
- viability, T/C [13]: 108%
- viability, T/C [14]: 105%
- viability, T/C [15]: 111%
- viability, T/C [16]: 99.9%
- viability, T/C (second compound 1 µM, first compound 3.16 µM): 107%
- viability, T/C (second compound 1 µM, first compound 10 µM): 81.2%
- viability, T/C [17]: 117%
- viability, T/C [18]: 111%
- viability, T/C [19]: 113%
- viability, T/C [20]: 103%
- viability, T/C (second compound 3.16 µM, first compound 3.16 µM): 100%
- viability, T/C (second compound 3.16 µM, first compound 10 µM): 87.3%
- viability, T/C [21]: 118%
- viability, T/C [22]: 106%
- viability, T/C [23]: 108%
- viability, T/C [24]: 112%
- viability, T/C (second compound 10 µM, first compound 3.16 µM): 103%
- viability, T/C (second compound 10 µM, first compound 10 µM): 88%
